Data published in US12319664B2, “Herbicidally active 3-phenylisoxazoline-5-carboxamides of cyclopentenylcarboxylic acid derivatives” (Bayer Aktiengesellschaft, priority 2018, dated 2025).

Legend:
[1] = test system: ECHCG; experiment: Post-emergence herbicidal action against ECHCG; format: in vivo, Echinochloa crus-galli; conditions: application rate 80 g/ha, rated visually after about 3 weeks
Procedure, shortened: (§1)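 One-leaf-stage plants (2–3 weeks after sowing in sandy loam) received a foliar spray of WP- or EC-formulated compound in water with 0.5% additive at 600 l/ha. Plants stayed under optimum greenhouse conditions for about 3 weeks before visual scoring against controls.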

[2] = test system: VERPE; experiment: Post-emergence herbicidal action against VERPE; format: in vivo, Veronica persica; conditions: application rate 80 g/ha
Procedure, shortened: as §1

[3] = test system: ABUTH; experiment: Post-emergence herbicidal action against ABUTH; format: in vivo, Abutilon theophrasti; conditions: application rate 80 g/ha, rated visually about 3 weeks after treatment
Procedure, shortened: as §1

[4] = test system: SETVI; experiment: Post-emergence herbicidal action against SETVI; format: in vivo, Setaria viridis; conditions: application rate 80 g/ha, rated visually after about 3 weeks
Procedure, shortened: as §1

[5] = test system: STEME; experiment: Post-emergence herbicidal action against STEME; format: in vivo, Stellaria media; conditions: application rate 80 g/ha, rated visually about 3 weeks after treatment
Procedure, shortened: as §1

[6] = test system: ALOMY; experiment: Post-emergence herbicidal action against ALOMY; format: in vivo, Alopecurus myosuroides; conditions: application rate 80 g/ha, rated visually after about 3 weeks
Procedure, shortened: as §1

[7] = test system: VIOTR; experiment: Post-emergence herbicidal action against VIOTR; format: in vivo, Viola tricolor; conditions: application rate 80 g/ha, rated visually about 3 weeks after treatment
Procedure, shortened: as §1

[8] = test system: POLCO; experiment: Post-emergence herbicidal action against POLCO; format: in vivo, Polygonum convolvulus; conditions: application rate 80 g/ha, rated visually about 3 weeks after treatment
Procedure, shortened: as §1

[9] = test system: AMARE; experiment: Post-emergence herbicidal action against AMARE; format: in vivo, Amaranthus retroflexus; conditions: application rate 80 g/ha, rated visually about 3 weeks after treatment
Procedure, shortened: as §1

[10] = test system: AVEFA; experiment: Post-emergence herbicidal action against AVEFA; format: in vivo, Avena fatua; conditions: application rate 80 g/ha, rated visually after about 3 weeks
Procedure, shortened: as §1

[11] = test system: HORMU; experiment: Post-emergence herbicidal action against HORMU; format: in vivo, Hordeum murinum; conditions: application rate 80 g/ha
Procedure, shortened: as §1

[12] = test system: PHBPU; experiment: Post-emergence herbicidal action against PHBPU; format: in vivo, Pharbitis purpurea; conditions: application rate 80 g/ha, rated visually about 3 weeks after treatment
Procedure, shortened: as §1

[13] = test system: LOLRI; experiment: Post-emergence herbicidal action against LOLRI; format: in vivo, Lolium rigidum; conditions: application rate 80 g/ha, rated visually after about 3 weeks
Procedure, shortened: as §1

[14] = test system: MATIN; experiment: Post-emergence herbicidal action against MATIN; format: in vivo, Matricaria inodora; conditions: application rate 80 g/ha, rated visually about 3 weeks after treatment
Procedure: [table] 2. Post-emergence herbicidal action against harmful plants and crop plant compatibility Seeds of monocotyledonous and dicotyledonous weeds and crop plants are placed in sandy loam in plastic or wood-fibre pots, covered with soil and cultivated in a greenhouse under controlled growth conditions. 2 to 3 weeks after sowing, the test plants are treated at the one-leaf stage. The compounds of the invention, formulated in the form of wettable powders (WP) or as emulsion concentrates (EC), are then sprayed onto the green parts of the plants as aqueous suspension or emulsion with addition of 0.5% additive at a water application rate of 600 l/ha (converted). After the test plants have been kept in the greenhouse under optimum growth conditions for about 3 weeks, the activity of the preparations is rated visually in comparison to untreated controls. For example, 100% activity=the plants have died, 0% activity=like control plants.

Compound	Herbicidal action against [%] ECHCG [1] [%]	Herbicidal action against [%] VERPE [2] [%]	Herbicidal action against [%] ABUTH [3] [%]	Herbicidal action against [%] SETVI [4] [%]	Herbicidal action against [%] STEME [5] [%]	Herbicidal action against [%] ALOMY [6] [%]	Herbicidal action against [%] VIOTR [7] [%]	Herbicidal action against [%] POLCO [8] [%]	Herbicidal action against [%] AMARE [9] [%]	Herbicidal action against [%] AVEFA [10] [%]	Herbicidal action against [%] HORMU [11] [%]	Herbicidal action against [%] PHBPU [12] [%]	Herbicidal action against [%] LOLRI [13] [%]	Herbicidal action against [%] MATIN [14] [%]
C=CC1(C(=O)N[C@H]2CC=C(C(=O)OC)C2)CC(c2cc(F)cc(F)c2)=NO1 (stereo partly shown) [III-08]	90	90	80	90	90	90	80	80	80	100	100	80	90	
COC(=O)C1C=CC(NC(=O)C2(C(F)(F)F)CC(c3cccc(C#N)c3)=NO2)C1 (mixture of isomers) [Example I-087]	80	90	90	80	90	100	90	90	90	100	100	90	100	
CC(C)(C#N)NC(=O)C1C=CC(NC(=O)C2(C(F)(F)F)CC(c3cc(F)cc(F)c3)=NO2)C1 (mixture of isomers) [II-34]	80	90	80	80	90	90	90	90	90	100	80	90	90	
C=CC1(C(=O)NC2C=CC(C(=O)O)C2)CC(c2cc(F)cc(F)c2)=NO1 (stereo not shown) [Example I-011]	90	80		80	90	90		80		90	80		90	80
CCOC(=O)C1C=CC(NC(=O)C2(C(F)(F)F)CC(c3cccc(Cl)c3)=NO2)C1 (mixture of isomers) [Example I-042]	90	80	80	80	90	100				100	90		100	80
COCCOC(=O)C1C=CC(NC(=O)C2(C)CC(c3cc(F)cc(C#N)c3)=NO2)C1 (mixture of isomers) [Example I-082]	90	90	90	90	90	100	90	90	90	100	100	90	100	
N#Cc1cc(F)cc(C2=NOC(C(=O)NC3C=CC(C(=O)O)C3)(C(F)(F)F)C2)c1 (mixture of isomers) [Example I-090]	80	90	90	90	90	100	90	90	90	100	100	90	100	
